Experimental data published in ChEMBL document CHEMBL1150365, “Improved synthesis of antibacterial 3-substituted 6-anilinouracils” (Bioorg Med Chem Lett, 2008).
≈ marks a conversion by molar mass, not a printed value. Calls of active or inactive are those of the source. No cut-off for these calls is given here.

Tests used:
Staphylococcus aureus [1] = assay: Antibacterial activity against Staphylococcus aureus 133 by broth microdilution method; assay type: functional
Streptococcus pneumoniae = assay: Antibacterial activity against Streptococcus pneumoniae 1707/4 in presence of bovine serum by broth microdilution method; assay type: functional
Enterococcus faecalis = assay: Antibacterial activity against Enterococcus faecalis ICB 27159 in presence of bovine serum by broth microdilution method; assay type: functional
[2] = Inhibition of Staphylococcus aureus DNA polymerase 3C
[3] = Aqueous solubility of the compound; assay type: physicochemical; conditions: water
Staphylococcus aureus [4] = assay: Antibacterial activity in Staphylococcus aureus injected CFU mouse at 100 mg/kg, ip after 30 mins; assay type: functional, organism-based; design: dose 100 mg/kg

MIC (Staphylococcus aureus [1]) | MIC (Streptococcus pneumoniae) | MIC (Enterococcus faecalis) | IC50 [2] | solubility [3] | Structure (SMILES) | Activity (Staphylococcus aureus [4])
8 µg/mL (≈ 26.4 µM) | 8 µg/mL | 16 µg/mL | 300 nM |  | CCc1cc(Nc2cc(=O)n(CCCO)c(=O)[nH]2)ccc1C | 
16 µg/mL (≈ 48.6 µM) | 16 µg/mL | 64 µg/mL | 1500 nM |  | CCOC(=O)Cn1c(=O)cc(Nc2ccc3c(c2)CCC3)[nH]c1=O | 
> 256 µg/mL | > 256 µg/mL | > 256 µg/mL | > 13000 nM |  | O=C(Cn1c(=O)cc(Nc2ccc3c(c2)CCC3)[nH]c1=O)c1ccc(Br)cc1 | 
4 µg/mL (≈ 13.5 µM) | 4 µg/mL | 16 µg/mL | 300 nM | 3.3 µg/mL (≈ 11.1 µM) | O=c1cc(Nc2ccc3c(c2)CCC3)[nH]c(=O)n1CC1CC1 | inactive
32 µg/mL (≈ 80.9 µM) | 16 µg/mL | 32 µg/mL | 1200 nM |  | CN(C)C(=O)c1cc(Cn2c(=O)cc(Nc3ccc4c(c3)CCC4)[nH]c2=O)on1 | 
32 µg/mL (≈ 83.9 µM) | 16 µg/mL | 32 µg/mL | 2000 nM |  | COC(=O)c1ccc(Cn2c(=O)cc(Nc3ccc4c(c3)CCC4)[nH]c2=O)o1 | 
